Experiments:
Collagenase 3 = Collagenase 3 (Homo sapiens, UniProt P45452)
Interstitial collagenase = molecular target: T1, Interstitial collagenase (Homo sapiens, UniProt P03956); format: cell-based, HT-1080
T1 sequence (P03956 whole entry): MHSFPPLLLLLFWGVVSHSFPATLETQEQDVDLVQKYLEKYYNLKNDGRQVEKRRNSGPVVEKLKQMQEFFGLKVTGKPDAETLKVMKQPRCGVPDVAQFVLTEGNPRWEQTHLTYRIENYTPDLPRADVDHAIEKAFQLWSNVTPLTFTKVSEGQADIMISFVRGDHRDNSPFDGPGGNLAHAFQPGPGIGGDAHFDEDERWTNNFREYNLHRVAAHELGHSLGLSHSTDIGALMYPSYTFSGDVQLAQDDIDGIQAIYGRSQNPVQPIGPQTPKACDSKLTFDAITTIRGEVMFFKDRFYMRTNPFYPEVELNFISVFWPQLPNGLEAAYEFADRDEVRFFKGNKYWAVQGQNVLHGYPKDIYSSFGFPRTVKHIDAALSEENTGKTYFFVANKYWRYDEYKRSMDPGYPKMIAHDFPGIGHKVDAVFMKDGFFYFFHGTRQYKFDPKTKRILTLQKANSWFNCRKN

Matrilysin = molecular target: T2, Matrilysin (Homo sapiens, UniProt P09237)
T2 sequence (P09237 whole entry): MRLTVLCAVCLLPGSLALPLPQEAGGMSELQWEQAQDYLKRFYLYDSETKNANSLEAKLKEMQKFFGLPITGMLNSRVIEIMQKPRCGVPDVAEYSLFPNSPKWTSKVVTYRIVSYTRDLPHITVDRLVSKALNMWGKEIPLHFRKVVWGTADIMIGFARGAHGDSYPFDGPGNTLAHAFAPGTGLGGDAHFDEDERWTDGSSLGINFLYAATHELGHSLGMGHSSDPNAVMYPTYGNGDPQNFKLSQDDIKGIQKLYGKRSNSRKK

[1] = molecular target: 72 kDa type IV collagenase (Homo sapiens, UniProt P08253)
Chain of 72 kDa type IV collagenase (P08253 whole entry): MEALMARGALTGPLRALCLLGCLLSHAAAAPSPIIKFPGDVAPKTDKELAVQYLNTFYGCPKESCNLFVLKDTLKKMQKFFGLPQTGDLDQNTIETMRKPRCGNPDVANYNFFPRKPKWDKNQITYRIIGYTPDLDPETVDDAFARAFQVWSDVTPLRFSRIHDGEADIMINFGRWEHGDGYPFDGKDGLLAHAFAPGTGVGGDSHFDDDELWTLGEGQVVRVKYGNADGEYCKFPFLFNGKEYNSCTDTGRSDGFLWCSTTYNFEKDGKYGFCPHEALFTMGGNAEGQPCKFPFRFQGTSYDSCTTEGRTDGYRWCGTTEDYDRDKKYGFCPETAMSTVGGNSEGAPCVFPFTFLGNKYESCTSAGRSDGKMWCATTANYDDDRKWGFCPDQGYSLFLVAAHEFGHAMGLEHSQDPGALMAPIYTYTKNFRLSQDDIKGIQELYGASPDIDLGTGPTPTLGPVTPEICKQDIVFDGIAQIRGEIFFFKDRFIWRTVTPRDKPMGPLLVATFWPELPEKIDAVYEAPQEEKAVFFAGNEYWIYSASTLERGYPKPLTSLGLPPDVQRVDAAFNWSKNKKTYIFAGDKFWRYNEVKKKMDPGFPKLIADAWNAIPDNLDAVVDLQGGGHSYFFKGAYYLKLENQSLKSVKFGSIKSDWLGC

Neutrophil collagenase = Neutrophil collagenase (Homo sapiens, UniProt P22894)
Chain of Neutrophil collagenase (P22894 whole entry): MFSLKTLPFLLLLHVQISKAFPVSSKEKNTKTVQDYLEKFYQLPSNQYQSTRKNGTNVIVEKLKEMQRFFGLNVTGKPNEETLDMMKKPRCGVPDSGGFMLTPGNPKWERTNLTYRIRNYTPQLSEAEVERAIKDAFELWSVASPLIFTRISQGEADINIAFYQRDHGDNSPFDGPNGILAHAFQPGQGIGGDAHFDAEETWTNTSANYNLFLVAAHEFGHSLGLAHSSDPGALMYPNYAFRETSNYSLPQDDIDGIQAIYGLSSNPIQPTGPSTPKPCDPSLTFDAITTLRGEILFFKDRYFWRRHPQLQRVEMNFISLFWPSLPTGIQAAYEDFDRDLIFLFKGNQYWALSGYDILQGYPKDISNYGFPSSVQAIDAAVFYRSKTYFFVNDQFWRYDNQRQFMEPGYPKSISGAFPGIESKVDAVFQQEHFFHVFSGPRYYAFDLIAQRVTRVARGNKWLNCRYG

Stromelysin-1 = Stromelysin-1 (Homo sapiens, UniProt P08254)
Chain of Stromelysin-1 (P08254 whole entry): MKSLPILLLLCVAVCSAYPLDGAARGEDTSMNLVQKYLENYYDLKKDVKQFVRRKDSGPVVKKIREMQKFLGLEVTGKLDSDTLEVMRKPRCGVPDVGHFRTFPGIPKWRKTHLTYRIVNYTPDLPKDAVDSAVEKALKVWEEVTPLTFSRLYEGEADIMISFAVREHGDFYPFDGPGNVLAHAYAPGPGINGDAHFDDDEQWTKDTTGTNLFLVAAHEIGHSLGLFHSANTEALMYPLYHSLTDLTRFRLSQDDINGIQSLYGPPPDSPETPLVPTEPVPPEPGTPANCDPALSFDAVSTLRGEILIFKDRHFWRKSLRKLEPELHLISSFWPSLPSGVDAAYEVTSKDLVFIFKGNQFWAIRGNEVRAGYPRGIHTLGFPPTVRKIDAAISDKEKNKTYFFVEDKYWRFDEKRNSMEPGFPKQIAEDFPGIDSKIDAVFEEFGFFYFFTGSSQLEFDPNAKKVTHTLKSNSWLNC

[2] = Half life in rat at 10 mg/mL, iv and po; format: ADME, organism-based; details: in vivo
[3] = Cmax in rat at 10 mg/mL, iv and po; format: ADME, organism-based; details: in vivo
Cartilage tissue = assay: Ex vivo inhibition of IL-1 and oncostatin M-induced bovine nasal cartilage degradation assessed as release of hydroxproline measured up to 16 days by mass spectrometry; format: functional, tissue-based; details: Bos taurus, 384 h
Rattus norvegicus [4] = assay: Plasma concentration in rat at 10 mg/mL, iv and po; format: ADME, organism-based; details: in vivo
[5] = Oral bioavailability in rat at 10 mg/mL; format: ADME, organism-based; details: in vivo
[6] = Cmax in rat at 20 mg/kg, po; format: ADME, organism-based; parameters: dose 20 mg/kg, route oral; details: in vivo
[7] = Oral bioavailability in rat at 20 mg/kg; format: ADME, organism-based; details: in vivo
[8] = Half life in rat at 20 mg/kg, po; format: ADME, organism-based; parameters: dose 20 mg/kg, route oral; details: in vivo
Rattus norvegicus [9] = assay: Plasma concentration in rat at 20 mg/kg, po; format: ADME, organism-based; parameters: dose 20 mg/kg, route oral; details: in vivo

| SMILES | IC50 (Collagenase 3) | IC50 (Interstitial collagenase) | IC50 (Matrilysin) | IC50 [1] | IC50 (Neutrophil collagenase) | IC50 (Stromelysin-1) | half-life [2] | Cmax [3] | IC50 (Cartilage tissue) | Cp (Rattus norvegicus [4]) | bioavailability [5] | Cmax [6] | bioavailability [7] | half-life [8] | Cp (Rattus norvegicus [9]) |
| --- | --- | --- | --- | --- | --- | --- | --- | --- | --- | --- | --- | --- | --- | --- | --- |
| O=C(NO)C1(S(=O)(=O)c2ccc(Oc3ccc(C(F)(F)F)cc3)cc2)CCOCC1 | 0.4 nM | 8000 nM | > 10000 nM | 0.1 nM | 9.4 nM | 22 nM | 2.68 h | 4300 ng/mL | 70 nM | 1154 ng/mL | 33% |  |  |  |  |
| COCCN1CCC(C(=O)NO)(S(=O)(=O)c2ccc(Oc3ccc(SC(F)(F)F)cc3)cc2)CC1 | 0.2 nM | > 10000 nM | 9000 nM | 0.2 nM | 1.9 nM | 23.9 nM |  |  |  |  |  | 32900 ng/mL | 34.1% | 2.99 h | 14078 ng/mL |
| O=C(NO)C1(S(=O)(=O)c2ccc(Oc3ccc(OC(F)(F)F)cc3)cc2)CCN(Cc2ccccn2)CC1 | < 0.1 nM | 6000 nM | > 10000 nM |  | 0.6 nM | 115 nM |  |  |  |  |  | 36800 ng/mL | 46.8% | 1.25 h | 1850 ng/mL |
| O=C(NO)C1(CS(=O)(=O)c2ccc(Oc3ccc(Cl)cc3)cc2)CCOCC1 [CTS-1027] |  |  |  |  |  |  |  |  | 30 nM |  |  |  |  |  |  |

— ChEMBL document CHEMBL1800055, “Orally active MMP-1 sparing α-tetrahydropyranyl and α-piperidinyl sulfone matrix metalloproteinase (MMP) inhibitors with efficacy in cancer, arthritis, and cardiovascular disease” (J Med Chem, 2010)
